Data as given in ChEMBL document CHEMBL5126604, “Design, Synthesis, and Biological Evaluation of Pyrrole-2-carboxamide Derivatives as Mycobacterial Membrane Protein Large 3 Inhibitors for Treating Drug-Resistant Tuberculosis” (J Med Chem, 2022).

Experiments:
[1] = system: Mycobacterium tuberculosis; assay: microbe, parasite or virus in culture; settings: Mycobacterium tuberculosis, 13946, 168 h
[2] = system: Mycobacterium tuberculosis; assay: microbe, parasite or virus in culture; settings: Mycobacterium tuberculosis, 14862, 168 h

| Structure (SMILES) | MIC [1] | MIC [2] |
| --- | --- | --- |
| O=C(NC12CC3CC(CC(C3)C1)C2)c1cc(-c2ccc(F)nc2F)c[nH]1 | < 0.016 µg/mL | < 0.016 µg/mL |
| O=C(NC12CC3CC(CC(C3)C1)C2)c1cc(-c2ccc(F)cc2F)c[nH]1 | < 0.016 µg/mL | < 0.016 µg/mL |
| O=C(NC1C2CC3CC(C2)CC1C3)c1cc(-c2ccc(F)nc2F)c[nH]1 (stereo unspecified) | < 0.016 µg/mL | < 0.016 µg/mL |
